Measured values: ChEMBL document CHEMBL3596143, “Identification of tanshinone IIA as a natural monoacylglycerol lipase inhibitor by combined in silico and in vitro approach” (Medchemcomm, 2014)

Tests used:
[1] = target: T1, Monoglyceride lipase (Homo sapiens) (UniProt Q99685); test: Inhibition of MAGL (unknown origin) at 500 uM after 10 mins relative to control
T1 sequence (whole entry): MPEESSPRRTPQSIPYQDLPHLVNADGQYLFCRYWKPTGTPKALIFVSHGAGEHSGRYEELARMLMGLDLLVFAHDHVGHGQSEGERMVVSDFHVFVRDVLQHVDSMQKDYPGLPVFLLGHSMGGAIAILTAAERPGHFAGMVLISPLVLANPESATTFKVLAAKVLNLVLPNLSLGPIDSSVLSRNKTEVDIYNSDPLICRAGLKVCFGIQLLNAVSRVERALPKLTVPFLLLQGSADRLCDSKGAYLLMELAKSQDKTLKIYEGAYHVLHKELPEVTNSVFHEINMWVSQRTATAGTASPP

[2] = target: T1, Monoglyceride lipase (Homo sapiens); test: Inhibition of MAGL (unknown origin) at 125 uM after 10 mins relative to control
[3] = target: T1, Monoglyceride lipase (Homo sapiens); test: Inhibition of MAGL (unknown origin) at […] after 10 mins relative to control
[4] = target: T1, Monoglyceride lipase (Homo sapiens); test: Inhibition of MAGL (unknown origin) at 250 uM after 10 mins relative to control
[5] = target: T1, Monoglyceride lipase (Homo sapiens); test: (§1) Inhibition of MAGL (unknown origin) after 10 mins
Monoglyceride lipase = target: T2, Monoglyceride lipase (Homo sapiens, UniProt Q99685); test: as §1
T2 sequence (Q99685 whole entry): T1 sequence (whole entry)

[6] = target: T1, Monoglyceride lipase (Homo sapiens); conditions: 2 mM
Description: Inhibition of MAGL (unknown origin) at 2 mM after 10 mins relative to control

| Compound | inhibition [1] [%] | inhibition [2] [%] | inhibition [3] [%] | inhibition [4] [%] | other results |
| --- | --- | --- | --- | --- | --- |
| Cc1coc2c1C(=O)C(=O)c1c-2ccc2c(C)cccc12 | 31 | 12 | 58 | 15 | – |
| CC1(C)OC(=O)C=C[C@]2(C)[C@H]3CC[C@@]4(C)[C@H](c5ccoc5)OC(=O)[C@H]5O[C@]54[C@]3(C)C(=O)C[C@@H]12 | – | – | 4 | – | – |
| Cc1coc2c1C(=O)C(=O)c1c-2ccc2c1CCCC2(C)C [TANSHINONE IIA] | 85 | 72 | 95 | 79 | inhibition [5]: Dose-dependent effect; IC50 (Monoglyceride lipase): 48 µM |
| O=C(Oc1ccc([N+](=O)[O-])cc1)N1CCC(C(O)(c2ccc3c(c2)OCO3)c2ccc3c(c2)OCO3)CC1 | – | – | – | – | inhibition [6]: 94% |
| CC1(C)CC[C@]2(C(=O)O)CC[C@]3(C)C(=CC[C@@H]4[C@@]5(C)CC[C@H](O)C(C)(C)[C@@H]5CC[C@]43C)[C@@H]2C1 | – | – | 1 | – | – |
| O=c1c(-c2ccc(O)cc2)coc2c([C@@H]3O[C@H](CO)[C@@H](O)[C@H](O)[C@H]3O)c(O)ccc12 | – | – | 52 | – | – |
